In patent US9872873B2, “Process for preparing stable pharmaceutical compositions of compounds susceptible to hydrolysis” (Fresenius Kabi Oncology Limited, priority 2012, dated 2018):

What was measured:
[1] = Stability profile of Decitabine pre-lyophilized bulk solution at 25° C. in water; assay type: physicochemical
Method: The manufacture of a freeze dried product necessitates that the product is usually first manufactured as a solution, filtered to sterilize, aseptically filled, and finally lyophilized to remove the solvents. All of these unit operations require that the product be held in the solution state for a defined period of time, at least for 4 hours. A batch of Decitabine bulk solution was prepared by dissolving the drug (5 mg/mL) and buffer (Potassium dihydrogen phosphate 6.8 mg/mL, sodium hydroxide 1.16 mg/mL) in water and at room temperature.

[2] = Stability profile of Decitabine pre-lyophilized bulk solution at −1° C. in water; assay type: physicochemical
[3] = Freezing point of bulk solution of Decitabine using various solvents and buffers; assay type: physicochemical
Excerpt: The advantages of using these non-aqueous solvent systems include: increased drug wetting or solubility, increased sublimation rates, increased pre-dried bulk solution or dried product stability, decreased reconstitution time, and enhancement of sterility assurance of the pre-dried bulk solution. A pre-requisite for such a solvent to be utilized efficiently for depression of freezing point of water would be to have satisfactory drug solubility in solvent system. […] Various solvents were evaluated for intended purpose e.g. Dimethylsulfoxide (1-30%), Ethanol (1-30%), Tertiary-butanol (1-30%), and their combinations were used in the range of 1-30% and thus were evaluated for their effect in decreasing the freezing point of bulk solution as summarized in Table VII. Although Ethanol decreased the freezing point of the drug solution and ensured drug solubility at low temperature, it was not suitable as a solvent for lyophilization as lyophilized cake could not be formed using this solvent system. Dimethyl sulphoxide is not suitable solvent for Lyophilization as it is difficult to remove during lyophilization.

[4] = Solution stability of Decitabine bulk solution in Water:Acetonitrile 80:20% v/v at −5 ± 2° C.; assay type: physicochemical
[5] = cited from earlier work
[6] = Initial (5 minutes after drug dissolution)

SMILES: Nc1ncn([C@H]2C[C@H](O)[C@@H](CO)O2)c(=O)n1 [Decitabine, 5-aza-2′ deoxycytidine]
- Related Substances: 5-Azacytosine ([1]; 2 h): 0.05%
- Related Substances: H-unk (Highest Unknown Impurity) ([1]; 2 h): 12.42%
- Related Substances: Six member Decitabine ([1]; 2 h): 0.34%
- Related Substances: Total ([1]; 2 h): 25.44%
- Related Substances: α-Decitabine ([1]; 2 h): 0.00%
- Related Substances: 5-Azacytosine ([1]; 4 h): 0.05%
- Related Substances: H-unk (Highest Unknown Impurity) ([1]; 4 h): 14.14%
- Related Substances: Six member Decitabine ([1]; 4 h): 0.81%
- Related Substances: Total ([1]; 4 h): 31.46%
- Related Substances: α-Decitabine ([1]; 4 h): 0.00%
- Related Substances: 5-Azacytosine [1, 6]: 0.00%
- Related Substances: H-unk (Highest Unknown Impurity) [1, 6]: 10.89%
- Related Substances: Six member Decitabine [1, 6]: 0.05%
- Related Substances: Total [1, 6]: 12.12%
- Related Substances: α-Decitabine [1, 6]: 0.00%
- Related Substances: 5-Azacytosine ([2]; 1 hr): 0.03%
- Related Substances: H-unk (Highest Unknown Impurity) ([2]; 1 hr): 0.05%
- Related Substances: SP1 ([2]; 1 hr): 0.03%
- Related Substances: SP2 ([2]; 1 hr): 0.01%
- Related Substances: SP3 ([2]; 1 hr): 0.06%
- Related Substances: SP4 ([2]; 1 hr): 0.85%
- Related Substances: SP6 ([2]; 1 hr): 0.07%
- Related Substances: Total ([2]; 1 hr): 1.25%
- Related Substances: α-Decitabine ([2]; 1 hr): 0.02%
- Related Substances: 5-Azacytosine ([2]; 2 hr): 0.04%
- Related Substances: H-unk (Highest Unknown Impurity) ([2]; 2 hr): 0.05%
- Related Substances: SP1 ([2]; 2 hr): 0.03%
- Related Substances: SP2 ([2]; 2 hr): 0.02%
- Related Substances: SP3 ([2]; 2 hr): 0.05%
- Related Substances: SP4 ([2]; 2 hr): 1.50%
- Related Substances: SP6 ([2]; 2 hr): 0.22%
- Related Substances: Total ([2]; 2 hr): 2.06%
- Related Substances: α-Decitabine ([2]; 2 hr): 0.02%
- Related Substances: 5-Azacytosine ([2]; 3 hr): 0.03%
- Related Substances: H-unk (Highest Unknown Impurity) ([2]; 3 hr): 0.05%
- Related Substances: SP1 ([2]; 3 hr): 0.03%
- Related Substances: SP2 ([2]; 3 hr): 0.02%
- Related Substances: SP3 ([2]; 3 hr): 0.05%
- Related Substances: SP4 ([2]; 3 hr): 2.13%
- Related Substances: SP6 ([2]; 3 hr): 0.21%
- Related Substances: Total ([2]; 3 hr): 2.68%
- Related Substances: α-Decitabine ([2]; 3 hr): 0.02%
- Related Substances: 5-Azacytosine ([2]; 4 hr): 0.03%
- Related Substances: H-unk (Highest Unknown Impurity) ([2]; 4 hr): 0.05%
- Related Substances: SP1 ([2]; 4 hr): 0.03%
- Related Substances: SP2 ([2]; 4 hr): 0.04%
- Related Substances: SP3 ([2]; 4 hr): 0.05%
- Related Substances: SP4 ([2]; 4 hr): 1.71%
- Related Substances: SP6 ([2]; 4 hr): 0.95%
- Related Substances: Total ([2]; 4 hr): 3.07%
- Related Substances: α-Decitabine ([2]; 4 hr): 0.01%
- Related Substances: 5-Azacytosine ([2]; Initial): 0.03%
- Related Substances: H-unk (Highest Unknown Impurity) ([2]; Initial): 0.05%
- Related Substances: SP1 ([2]; Initial): 0.03%
- Related Substances: SP2 ([2]; Initial): 0.01%
- Related Substances: SP3 ([2]; Initial): 0.06%
- Related Substances: SP4 ([2]; Initial): 0.35%
- Related Substances: SP6 ([2]; Initial): 0.04%
- Related Substances: Total ([2]; Initial): 0.70%
- Freezing Point of bulk solution ([3]; 5% DMSO + 10% Ethanol + 20% Tertiary-butanol + buffer): −8 to −10 °C
- Freezing Point of bulk solution ([3]; 5% DMSO +10% Ethanol + buffer): −5 °C
- Freezing Point of bulk solution ([3]; 5% DMSO + 15% Ethanol + buffer): −6 to −9 °C
- Freezing Point of bulk solution ([3]; Acetonitrile 5%): −2 to −3 °C
- Freezing Point of bulk solution ([3]; Acetonitrile 10%): −3 to −4 °C
- Freezing Point of bulk solution ([3]; Acetonitrile 15%): −4 to −6 °C
- Freezing Point of bulk solution ([3]; Acetonitrile 20%): −8 °C
- Freezing Point of bulk solution ([3]; DMSO 1%): −0.5 °C
- Freezing Point of bulk solution ([3]; DMSO 2%): −0.8 °C
- Freezing Point of bulk solution ([3]; DMSO 5%): −1.6 °C
- Freezing Point of bulk solution ([3]; DMSO 10%): −3.0 °C
- Freezing Point of bulk solution ([3]; DMSO 15%): −5.5 °C
- Freezing Point of bulk solution ([3]; DMSO 20%): −13.9 °C
- Freezing Point of bulk solution ([3]; DMSO 30%): −16.0 °C
- Freezing Point of bulk solution ([3]; Ethanol 1%): −0.5 °C
- Freezing Point of bulk solution ([3]; Ethanol 2%): −0.7 °C
- Freezing Point of bulk solution ([3]; Ethanol 5%): −2.0 °C
- Freezing Point of bulk solution ([3]; Ethanol 10%): −2.5 °C
- Freezing Point of bulk solution ([3]; Ethanol 15%): −6.1 °C
- Freezing Point of bulk solution ([3]; Ethanol 20%): −13.8 °C
- Freezing Point of bulk solution ([3]; Ethanol 30%): −14.3 °C
- Freezing Point of bulk solution ([3]; Tertiary-butanol 1%): −0.1 °C
- Freezing Point of bulk solution ([3]; Tertiary-butanol 2%): −1.0 °C
- Freezing Point of bulk solution ([3]; Tertiary-butanol 5%): −2.5 °C
- Freezing Point of bulk solution ([3]; Tertiary-butanol 10%): −4.3 °C
- Freezing Point of bulk solution ([3]; Tertiary-butanol 15%): −6.0 °C
- Freezing Point of bulk solution ([3]; Tertiary-butanol 20%): −9.3 °C
- Freezing Point of bulk solution ([3]; Tertiary-butanol 30%): −12.9 °C
- Freezing Point of bulk solution ([3]; n-butanol): Restricted Miscibility
- Related Substances: 5-Azacytosine ([4]; 4 hrs): 0.02%
- Related Substances: H-unk (Highest Unknown Impurity) ([4]; 4 hrs): 0.03%
- Related Substances: SP4 ([4]; 4 hrs): 0.28%
- Related Substances: SP6 ([4]; 4 hrs): 0.29%
- Related Substances: Total ([4]; 4 hrs): 0.67%
- Related Substances: 5-Azacytosine ([4]; Initial): 0.01%
- Related Substances: H-unk (Highest Unknown Impurity) ([4]; Initial): 0.03%
- Related Substances: SP4 ([4]; Initial): 0.04%
- Related Substances: SP6 ([4]; Initial): 0.05%
- Related Substances: Total ([4]; Initial): 0.17%
- Maximum storage time of diluted solution until administration ([5]; prepared with cold (2° C.-8° C.) infusion fluids, stored at 2° C.-8° C.): ≤ 7 h
- Time of use after reconstitution without cold infusion fluids ([5]; reconstituted with Sterile Water for Injection): ≤ 15 min
